Measurements published in patent US5328902A, “7-(substituted)-9-[(substituted glycyl)amido]-6-demethyl-6-deoxytetracyclines” (American Cyanamid Co., priority 1992, dated 1994).
In brackets after ≈: the same amount, converted by molar mass. Structures can show the parent of a compound that is named as a salt.

Assays:
Type in all cases: cell-based
E. coli UBMS 89-1 Tet M = test: microbe, parasite or virus in culture; conditions: E. coli UBMS 89-1 Tet M
E. faecalis ATCC 29212 = test: MIC, agar dilution; conditions: E. faecalis ATCC 29212
E. coli UBMS 90-4 Tet M = test: microbe, parasite or virus in culture; conditions: E. coli UBMS 90-4 Tet M
E. coli UBMS 88-1 Tet B = test: microbe, parasite or virus in culture; conditions: E. coli UBMS 88-1 Tet B; 18 hours at 35° C.
E. coli J2175 = test: MIC, agar dilution; conditions: E. coli J2175
E. coli J3272 Tet C = test: microbe, parasite or virus in culture; conditions: E. coli J3272 Tet C
[1] = system: S. aureus UBMS 88-7 Tet K; test: microbe, parasite or virus in culture; conditions: S. aureus UBMS 88-7 Tet K
S. aureus IVES 1 983 = test: MIC, agar dilution; conditions: S. aureus IVES 1 983
[2] = system: E. coli MC 4100 Tet sens.; test: MIC, agar dilution
[3] = system: S. aureus UBMS 88-5 Tet M; test: microbe, parasite or virus in culture; conditions: S. aureus UBMS 88-5 Tet M
S. aureus UBMS 88-4 = test: MIC, agar dilution; conditions: S. aureus UBMS 88-4
[4] = system: Ps. acruginosa ATCC 27853; test: MIC, agar dilution; conditions: Ps. acruginosa ATCC 27853
E. coli J3272 Tet D = test: microbe, parasite or virus in culture; conditions: E. coli J3272 Tet D
Enterococcus 12201 = test: MIC, agar dilution; conditions: Enterococcus 12201
E. coli ATCC 25922 = test: MIC, agar dilution; conditions: E. coli ATCC 25922
S. mariescens FPOR 8733 = test: MIC, agar dilution
S. aureus UBMS 90-3 = test: MIC, agar dilution; conditions: S. aureus UBMS 90-3
S. aureus ATCC 29213 = test: MIC, agar dilution; conditions: S. aureus ATCC 29213
[5] = system: S. hemolyticus AVHAH 88-3; test: MIC, agar dilution; conditions: S. hemolyticus AVHAH 88-3
[6] = system: S. aureus UBMS 90-1 Tet M; test: microbe, parasite or virus in culture; conditions: S. aureus UBMS 90-1 Tet M
E. coli UBMS 90-5 = test: MIC, agar dilution
[7] = system: E. coli UBMS 89-2 Tet sens.; test: MIC, agar dilution; conditions: E. coli UBMS 89-2 Tet sens.
E. coli BAJ9003 IMP MUT = test: microbe, parasite or virus in culture; conditions: E. coli BAJ9003 IMP MUT
[8] = system: S. aureus UBMS 90-2 Tet M; test: microbe, parasite or virus in culture; conditions: S. aureus UBMS 90-2 Tet M
E. coli #311 (MP) = test: MIC, agar dilution; conditions: E. coli #311 (MP)
S. aureus IVES 2943 = test: MIC, agar dilution; conditions: S. aureus IVES 2943
S. aureus ROSE (MP) = test: MIC, agar dilution; conditions: S. aureus ROSE (MP)
E. coli PRP1 Tet A = test: microbe, parasite or virus in culture; conditions: E. coli PRP1 Tet A
S. aureus SMITH (MP) = test: MIC, agar dilution; conditions: S. aureus SMITH (MP)
S. aureus NEMC 8769 = test: MIC, agar dilution; conditions: S. aureus NEMC 8769

Compound	MIC (E. coli UBMS 89-1 Tet M) [µg/mL]	MIC (E. faecalis ATCC 29212) [µg/mL]	MIC (E. coli UBMS 90-4 Tet M) [µg/mL]	MIC (E. coli UBMS 88-1 Tet B) [µg/mL]	MIC (E. coli J2175) [µg/mL]	MIC [1] [µg/mL]	MIC (S. aureus IVES 1 983) [µg/mL]	MIC [2] [µg/mL]	MIC [3] [µg/mL]	MIC (S. aureus UBMS 88-4) [µg/mL]	MIC [4] [µg/mL]	MIC (E. coli J3272 Tet D) [µg/mL]	MIC (Enterococcus 12201) [µg/mL]	MIC (E. coli ATCC 25922) [µg/mL]	MIC (S. mariescens FPOR 8733) [µg/mL]	MIC (S. aureus UBMS 90-3) [µg/mL]	MIC (S. aureus ATCC 29213) [µg/mL]	MIC [6] [µg/mL]	MIC [8] [µg/mL]	MIC (E. coli #311 (MP)) [µg/mL]	also measured
717S-(7alpha,10aalpha)]-N-[9-(Aminocarbonyl)4,7-bis(dimethylamino)-5,5a,6,6a,7,10,10a,12-octahydro-1,8,10a,11-tetrahydroxy-10,12-dioxo-2-naphthacenyl]-4-methyl-l-piperazineacetamide dihydrochloride	8	1	8	8	8	16	> 32	1	4	2	> 32	4	2	8	> 32	2	2	8	2	8	MIC (E. coli J3272 Tet C): 8 µg/mL; MIC [5]: 16 µg/mL; MIC (E. coli UBMS 90-5): 8 µg/mL; MIC [7]: 8 µg/mL; MIC (E. coli BAJ9003 IMP MUT): 0.5 µg/mL; MIC (S. aureus IVES 2943): > 32 µg/mL; MIC (S. aureus ROSE (MP)): > 32 µg/mL; MIC (E. coli PRP1 Tet A): 16 µg/mL; MIC (S. aureus SMITH (MP)): 0.5 µg/mL
CCCCCCCNCC(=O)Nc1cc(N(C)C)c2c(c1O)C(=O)C1=C(O)[C@]3(O)C(=O)C(C(N)=O)=C(O)[C@@H](N(C)C)C3CC1C2 (stereo partly drawn) [J, [4S-(4alpha,12aalpha)]-4,7-Bis(dimethylamino)-9-[[(heptylamino)acetyl]amino]-l,4,4a,5,5a,6,11,12a-octahydro-3,10,12,12a-tetrahydroxy-1,11-dioxo-2-naphthacenecarboxamide dihydrochloride]	0.5	–	2	2	2	1	1	1	0.5	0.5	> 32	2	0.5	2	16	–	0.5	1	0.5	2	MIC (E. coli J3272 Tet C): 2 µg/mL; MIC (S. aureus NEMC 8769): no; MIC [5]: 2 µg/mL; MIC (E. coli UBMS 90-5): 2 µg/mL; MIC [7]: 2 µg/mL; MIC (E. coli BAJ9003 IMP MUT): 0.25 µg/mL; MIC (S. aureus IVES 2943): 0.5 µg/mL; MIC (S. aureus ROSE (MP)): 2 µg/mL; MIC (E. coli PRP1 Tet A): 2 µg/mL
CN(C)c1cc(NC(=O)CNCC(F)(F)F)c(O)c2c1CC1CC3C(N(C)C)C(O)=C(C(N)=O)C(=O)C3(O)C(O)=C1C2=O (stereo not drawn) [S, [4S-(4alpha,12aalpha)]-4,7-Bis(dimethylamino)-1,4,4a,5,5a,6,11,12a-octahydro-3,10, 12,12a-tetrahydroxy-1,11-dioxo-9-[[[2,2,2-trifluoroethyl)amino]acetyl]amino-2-naphthacenecarboxamide]	32 (≈ 52.3 µM)	2 (≈ 3.27 µM)	–	32 (≈ 52.3 µM)	> 32	32 (≈ 52.3 µM)	> 32	16 (≈ 26.2 µM)	8 (≈ 13.1 µM)	4 (≈ 6.54 µM)	> 32	–	4 (≈ 6.54 µM)	> 32	> 32	4 (≈ 6.54 µM)	4 (≈ 6.54 µM)	16 (≈ 26.2 µM)	4 (≈ 6.54 µM)	> 32	MIC (S. aureus NEMC 8769): 4 µg/mL (≈ 6.54 µM); MIC [5]: 16 µg/mL (≈ 26.2 µM); MIC (E. coli UBMS 90-5): > 32 µg/mL; MIC [7]: > 32 µg/mL; MIC (S. aureus IVES 2943): > 32 µg/mL
[4S-(4alpha,12aalpha)]-4,7-Bis(dimethylamino)-1,4,4a,5,5a,6,11,12a-octahydro-3,10, 12,12a-tetrahydroxy-1,11-dioxo-9-[[(undecylamino)acetyl]amino]-2-naphthacenecarboxamide dihydrochloride	16	2	32	32	–	2	–	2	16	0.5	> 32	32	4	–	> 32	0.5	1	16	4	8	MIC (S. aureus NEMC 8769): 0.5 µg/mL; MIC (E. coli BAJ9003 IMP MUT): 1 µg/mL; MIC (S. aureus ROSE (MP)): 16 µg/mL; MIC (E. coli PRP1 Tet A): 32 µg/mL; MIC (S. aureus SMITH (MP)): 0.5 µg/mL
[4S-(4alpha,12aalpha)]-4,7-bis(dimethylamino)-1,4,4a,5,5a,6,11,12a-octahydro-3,10, 12,12a-tetrahydroxy-1,11-dioxo-9-[[[(2pyridinylmethyl)amino]acetyl]amino-2-naphthacenecarboxamide dihydrochloride	8	2	8	16	16	32	> 32	2	8	8	> 32	8	4	8	> 32	4	8	8	8	8	MIC (E. coli J3272 Tet C): 16 µg/mL; MIC (S. aureus NEMC 8769): 8 µg/mL; MIC [5]: 16 µg/mL; MIC (E. coli UBMS 90-5): 16 µg/mL; MIC [7]: 16 µg/mL; MIC (E. coli BAJ9003 IMP MUT): 1 µg/mL; MIC (S. aureus IVES 2943): > 32 µg/mL; MIC (E. coli PRP1 Tet A): 32 µg/mL; MIC (S. aureus SMITH (MP)): 4 µg/mL
